Experimental data from article PMC5218480 (PLoS ONE, 2017).

System: MV-4-11 cells
Experiment: Gene expression microarray analysis (Affymetrix PrimeView) and GSEA
Type: cell-based, human
Design: RFU PODN (11730768_x_at) / Fold change /veh PODN (11730768_x_at) / RFU LINC00158 (11744669_a_at) / Fold change /veh LINC00158 (11744669_a_at) / RFU DUSP10 (11751237_a_at) / Fold change /veh DUSP10 (11751237_a_at) / RFU ID3 (11757404_x_at) / Fold change /veh ID3 (11757404_x_at) / RFU PLEKHG5 (11737974_s_at) / Fold change /veh PLEKHG5 (11737974_s_at) / RFU LRRC4B (11730491_at) / Fold change /veh LRRC4B (11730491_at) / RFU GIMAP4 (11747438_a_at) / Fold change /veh GIMAP4 (11747438_a_at) / RFU KRT8 (11758183_x_at) / Fold change /veh KRT8 (11758183_x_at) / RFU CNN1 (11734310_a_at) / Fold change /veh CNN1 (11734310_a_at) / RFU VPS37D (11726825_at) / Fold change /veh VPS37D (11726825_at) / RFU C10orf10 (11716522_x_at) / Fold change /veh C10orf10 (11716522_x_at) / RFU KIR2DL2 /// KIR2DL4 /// KIR2DL5A /// KIR2DL5B /// KIR2DS1 /// KIR2DS2 /// KIR2DS3 /// KIR2DS4 /// KIR3DL3 /// KIR3DL3 /// KIR3DS1 (11738374_at) / Fold change /veh KIR2DL2 /// KIR2DL4 /// KIR2DL5A /// KIR2DL5B /// KIR2DS1 /// KIR2DS2 /// KIR2DS3 /// KIR2DS4 /// KIR3DL3 /// KIR3DL3 /// KIR3DS1 (11738374_at) / RFU C1QL1 (11718748_at) / Fold change /veh C1QL1 (11718748_at) / RFU TMPRSS4 (11747572_a_at) / Fold change /veh TMPRSS4 (11747572_a_at) / RFU HAMP (11756126_x_at) / Fold change /veh HAMP (11756126_x_at) / RFU RNFT2 (11725882_a_at) / Fold change /veh RNFT2 (11725882_a_at) / RFU NR4A2 (11747474_a_at) / Fold change /veh NR4A2 (11747474_a_at) / RFU ABCC12 (11746883_a_at) / Fold change /veh ABCC12 (11746883_a_at) / RFU TMEM136 (11760407_x_at) / Fold change /veh TMEM136 (11760407_x_at) / RFU CLDN22 /// WWC2 (11732394_at) / Fold change /veh CLDN22 /// WWC2 (11732394_at) / RFU HLA-DPB1 (11760878_x_at) / Fold change /veh HLA-DPB1 (11760878_x_at) / RFU SPINT1 (11716480_a_at) / Fold change /veh SPINT1 (11716480_a_at) / RFU GAP43 (11754022_s_at) / Fold change /veh GAP43 (11754022_s_at) / RFU A4GNT (11735810_at) / Fold change /veh A4GNT (11735810_at) / RFU PRB3 (11715151_x_at) / Fold change /veh PRB3 (11715151_x_at) / RFU TUBB4B (11761932_at) / Fold change /veh TUBB4B (11761932_at) / RFU CAPN14 (11732068_a_at) / Fold change /veh CAPN14 (11732068_a_at) / RFU TMCC2 (11721928_a_at) / Fold change /veh TMCC2 (11721928_a_at) / RFU IRGQ (11745062_a_at) / Fold change /veh IRGQ (11745062_a_at) / RFU FAM174B (11720279_a_at) / Fold change /veh FAM174B (11720279_a_at) / RFU TMPRSS4 (11748680_a_at) / Fold change /veh TMPRSS4 (11748680_a_at) / RFU FAM212B (11763350_a_at) / Fold change /veh FAM212B (11763350_a_at) / RFU PLEKHG5 (11743358_a_at) / Fold change /veh PLEKHG5 (11743358_a_at) / RFU ZSCAN30 (11745921_a_at) / Fold change /veh ZSCAN30 (11745921_a_at) / RFU CMKLR1 (11741424_a_at) / Fold change /veh CMKLR1 (11741424_a_at) / RFU LOC101060620 /// MAPK8IP1 (11723275_at) / Fold change /veh LOC101060620 /// MAPK8IP1 (11723275_at) / RFU SPTSSB (11747773_x_at) / Fold change /veh SPTSSB (11747773_x_at) / RFU PRSS12 (11739890_at) / Fold change /veh PRSS12 (11739890_at) / RFU BIN1 (11741810_x_at) / Fold change /veh BIN1 (11741810_x_at) / RFU WNT11 (11732464_a_at) / Fold change /veh WNT11 (11732464_a_at) / RFU C10orf10 (11716521_a_at) / Fold change /veh C10orf10 (11716521_a_at) / RFU C5orf56 (11738089_at) / Fold change /veh C5orf56 (11738089_at) / RFU CYB561 (11721691_x_at) / Fold change /veh CYB561 (11721691_x_at) / RFU ANKRD19P (11752326_a_at) / Fold change /veh ANKRD19P (11752326_a_at) / RFU OR2T12 /// OR2T33 /// OR2T8 (11738714_s_at) / Fold change /veh OR2T12 /// OR2T33 /// OR2T8 (11738714_s_at) / RFU VCAN (11748164_a_at) / Fold change /veh VCAN (11748164_a_at) / RFU JSRP1 (11732532_at) / Fold change /veh JSRP1 (11732532_at) / RFU KRTAP10-11 (11738290_x_at) / Fold change /veh KRTAP10-11 (11738290_x_at) / RFU MYO3A (11730013_a_at) / Fold change /veh MYO3A (11730013_a_at) / RFU EBF3 (11725865_a_at) / Fold change /veh EBF3 (11725865_a_at) / RFU CAMK2N1 (11719241_x_at) / Fold change /veh CAMK2N1 (11719241_x_at) / RFU C5orf56 (11738088_a_at) / Fold change /veh C5orf56 (11738088_a_at) / RFU OLFML3 (11715873_a_at) / Fold change /veh OLFML3 (11715873_a_at) / RFU LOC100653217 /// NTM (11731650_a_at) / Fold change /veh LOC100653217 /// NTM (11731650_a_at) / RFU MAPK11 (11762145_a_at) / Fold change /veh MAPK11 (11762145_a_at) / RFU FIZ1 (11724087_x_at) / Fold change /veh FIZ1 (11724087_x_at) / RFU OASL (11726364_x_at) / Fold change /veh OASL (11726364_x_at) / RFU SOX15 (11748057_x_at) / Fold change /veh SOX15 (11748057_x_at) / RFU CD79A (11719716_a_at) / Fold change /veh CD79A (11719716_a_at) / RFU HIST1H1D (11736915_at) / Fold change /veh HIST1H1D (11736915_at) / RFU CASKIN2 (11723855_a_at) / Fold change /veh CASKIN2 (11723855_a_at) / RFU LOC730098 (11760151_x_at) / Fold change /veh LOC730098 (11760151_x_at) / RFU OR4N2 (11742367_at) / Fold change /veh OR4N2 (11742367_at) / RFU PRRT2 (11749266_a_at) / Fold change /veh PRRT2 (11749266_a_at) / RFU SNX32 (11753110_a_at) / Fold change /veh SNX32 (11753110_a_at) / RFU CDHR5 (11726645_a_at) / Fold change /veh CDHR5 (11726645_a_at) / RFU RCAN1 (11760418_a_at) / Fold change /veh RCAN1 (11760418_a_at) / RFU FAM167A (11723789_a_at) / Fold change /veh FAM167A (11723789_a_at) / RFU FAM26E (11764081_at) / Fold change /veh FAM26E (11764081_at) / RFU ISYNA1 (11749810_s_at) / Fold change /veh ISYNA1 (11749810_s_at) / RFU ACY1 (11761880_at) / Fold change /veh ACY1 (11761880_at) / RFU 11764098_at / Fold change /veh 11764098_at / RFU SAMD14 (11745864_x_at) / Fold change /veh SAMD14 (11745864_x_at) / RFU NPB (11741838_a_at) / Fold change /veh NPB (11741838_a_at) / RFU TMPRSS6 (11731388_a_at) / Fold change /veh TMPRSS6 (11731388_a_at) / RFU KRTAP10-2 (11738614_at) / Fold change /veh KRTAP10-2 (11738614_at) / RFU ARHGAP8 /// PRR5-ARHGAP8 (11727945_x_at) / Fold change /veh ARHGAP8 /// PRR5-ARHGAP8 (11727945_x_at) / RFU KRTAP5-7 /// NADSYN1 (11734609_at) / Fold change /veh KRTAP5-7 /// NADSYN1 (11734609_at) / RFU RASL12 (11751679_a_at) / Fold change /veh RASL12 (11751679_a_at) / RFU CDKN2B (11736163_a_at) / Fold change /veh CDKN2B (11736163_a_at) / RFU PRF1 (11729649_at) / Fold change /veh PRF1 (11729649_at) / RFU, ZNF638 /// ZNF638-IT1 / Fold change vs veh, ZNF638 /// ZNF638-IT1 / RFU, PANK3 / Fold change vs veh, PANK3 / RFU, SH3YL1 / Fold change vs veh, SH3YL1 / RFU, ZEB2 / Fold change vs veh, ZEB2 / RFU, NRIP1 / Fold change vs veh, NRIP1 / RFU, PTTG1IP / Fold change vs veh, PTTG1IP / RFU, CAPN2 / Fold change vs veh, CAPN2 / RFU, MED14 / Fold change vs veh, MED14 / RFU, SNORA58 / Fold change vs veh, SNORA58 / RFU, C1orf63 / Fold change vs veh, C1orf63 / RFU, LRRFIP1 / Fold change vs veh, LRRFIP1 / RFU, NDUFAF7 / Fold change vs veh, NDUFAF7 / RFU, SLC12A2 / Fold change vs veh, SLC12A2 / RFU, IBTK / Fold change vs veh, IBTK / RFU, ESF1 / Fold change vs veh, ESF1 / Fold change vs veh, TMEM50B / RFU, TAOK1 / Fold change vs veh, TAOK1 / RFU, ACBD3 / Fold change vs veh, ACBD3 / RFU, TMA16 / Fold change vs veh, TMA16 / RFU, RWDD3 / Fold change vs veh, RWDD3 / RFU, BCAT1 / Fold change vs veh, BCAT1 / RFU, EDEM3 / Fold change vs veh, EDEM3 / RFU, TMEM33 / Fold change vs veh, TMEM33 / RFU, WDR75 / Fold change vs veh, WDR75 / RFU, AHCTF1 / Fold change vs veh, AHCTF1 / RFU, TFRC / Fold change vs veh, TFRC / RFU, ZDHHC17 / Fold change vs veh, ZDHHC17 / RFU, NOM1 / Fold change vs veh, NOM1 / RFU, ARL8B / Fold change vs veh, ARL8B / RFU, ZBTB11 / Fold change vs veh, ZBTB11 / RFU, TAMM41 / Fold change vs veh, TAMM41 / RFU, KIAA1704 /// LOC100996395 / Fold change vs veh, KIAA1704 /// LOC100996395 / RFU, ING1 / Fold change vs veh, ING1 / RFU, TRMT61B / Fold change vs veh, TRMT61B / RFU, FUBP3 / Fold change vs veh, FUBP3 / RFU, TP53 / Fold change vs veh, TP53 / RFU, TNKS2 / Fold change vs veh, TNKS2 / RFU, ZFP14 / Fold change vs veh, ZFP14 / RFU, ACTR2 / Fold change vs veh, ACTR2 / RFU, PPP3R1 / Fold change vs veh, PPP3R1 / RFU, PIK3R1 / Fold change vs veh, PIK3R1 / RFU, HNRNPA1 / Fold change vs veh, HNRNPA1 / RFU, RNF170 / Fold change vs veh, RNF170 / RFU, ZNF28 / Fold change vs veh, ZNF28 / RFU, RNGTT / Fold change vs veh, RNGTT / RFU, OGT / Fold change vs veh, OGT / RFU, BRD1 / Fold change vs veh, BRD1 / RFU, MARS / Fold change vs veh, MARS / RFU, ZNF655 / Fold change vs veh, ZNF655 / RFU, FAHD1 / Fold change vs veh, FAHD1 / RFU, BDP1 / Fold change vs veh, BDP1 / RFU, LRRCC1 / Fold change vs veh, LRRCC1 / RFU, ARID1A / Fold change vs veh, ARID1A / RFU, ZNF146 / Fold change vs veh, ZNF146 / RFU, ZNF330 / Fold change vs veh, ZNF330 / RFU, GPN3 / Fold change vs veh, GPN3 / RFU, C9orf123 / Fold change vs veh, C9orf123 / RFU, N4BP2L2 / Fold change vs veh, N4BP2L2 / RFU, ARFIP1 / Fold change vs veh, ARFIP1 / RFU, FAM179B / Fold change vs veh, FAM179B / RFU, BCL10 / Fold change vs veh, BCL10 / RFU, UHRF1BP1L / Fold change vs veh, UHRF1BP1L / RFU, BET1 / Fold change vs veh, BET1 / RFU, CNOT2 / Fold change vs veh, CNOT2 / RFU, ZNF268 / Fold change vs veh, ZNF268 / Fold change vs veh, ZNF507 / RFU, DGCR2 / Fold change vs veh, DGCR2 / RFU, WDSUB1 / Fold change vs veh, WDSUB1 / Fold change vs veh, HSP90B1 /// MIR3652 / RFU, ADSS / Fold change vs veh, ADSS / RFU, GK / Fold change vs veh, GK / RFU, ZNF148 / Fold change vs veh, ZNF148 / RFU, TAF9 / Fold change vs veh, TAF9 / RFU, SLC1A5 / Fold change vs veh, SLC1A5 / RFU, SLMO2 / Fold change vs veh, SLMO2 / RFU, ABCC4 / Fold change vs veh, ABCC4 / RFU, LOC101060439 /// RAP1B / Fold change vs veh, LOC101060439 /// RAP1B / RFU, RFX7 / Fold change vs veh, RFX7 / RFU, GTPBP10 / Fold change vs veh, GTPBP10 / RFU, CNEP1R1 / Fold change vs veh, CNEP1R1 / RFU, BIVM-ERCC5 /// ERCC5 / Fold change vs veh, BIVM-ERCC5 /// ERCC5 / RFU, ILF3 / Fold change vs veh, ILF3 / RFU 11762660_at / Fold change /veh 11762660_at / RFU VCAN (11757783_s_at) / Fold change /veh VCAN (11757783_s_at) / RFU DDX43 (11728927_at) / Fold change /veh DDX43 (11728927_at) / RFU KRT8 (11758188_x_at) / Fold change /veh KRT8 (11758188_x_at) / RFU NKD1 (11759106_at) / Fold change /veh NKD1 (11759106_at) / RFU SRD5A1 (11742802_a_at) / Fold change /veh SRD5A1 (11742802_a_at) / RFU TPSAB1 /// TPSB2 (11721975_s_at) / Fold change /veh TPSAB1 /// TPSB2 (11721975_s_at) / RFU GSTM3 (11746129_a_at) / Fold change /veh GSTM3 (11746129_a_at) / RFU IL23R (11737362_x_at) / Fold change /veh IL23R (11737362_x_at) / RFU TMEM51 (11727254_a_at) / Fold change /veh TMEM51 (11727254_a_at) / RFU PIWIL2 (11732686_x_at) / Fold change /veh PIWIL2 (11732686_x_at) / RFU ORM1 (11744905_x_at) / Fold change /veh ORM1 (11744905_x_at) / RFU CCDC152 (11743942_at) / Fold change /veh CCDC152 (11743942_at) / RFU ECM1 (11717891_a_at) / Fold change /veh ECM1 (11717891_a_at) / RFU IL23R (11748794_a_at) / Fold change /veh IL23R (11748794_a_at) / RFU TNFAIP8L3 (11732012_x_at) / Fold change /veh TNFAIP8L3 (11732012_x_at) / RFU MBOAT4 (11741988_at) / Fold change /veh MBOAT4 (11741988_at) / RFU 11764193_at / Fold change /veh 11764193_at / RFU TMEM53 (11763286_at) / Fold change /veh TMEM53 (11763286_at) / RFU MAGEB2 (11727129_at) / Fold change /veh MAGEB2 (11727129_at) / RFU TMEM200A (11744735_a_at) / Fold change /veh TMEM200A (11744735_a_at) / RFU CCDC152 (11751479_a_at) / Fold change /veh CCDC152 (11751479_a_at) / RFU FAM211A (11726209_a_at) / Fold change /veh FAM211A (11726209_a_at) / RFU RGS16 (11746705_a_at) / Fold change /veh RGS16 (11746705_a_at) / RFU VCAN (11755009_s_at) / Fold change /veh VCAN (11755009_s_at) / RFU RHOB (11743442_s_at) / Fold change /veh RHOB (11743442_s_at) / RFU RGS16 (11720943_a_at) / Fold change /veh RGS16 (11720943_a_at) / RFU RGS16 (11720944_at) / Fold change /veh RGS16 (11720944_at) / RFU, VPS4B / Fold change vs veh, VPS4B / RFU, CREB1 / Fold change vs veh, CREB1 / RFU, DNAJC13 / Fold change vs veh, DNAJC13 / RFU, GNAQ / Fold change vs veh, GNAQ / RFU, CDK5R1 / Fold change vs veh, CDK5R1 / RFU, ZRANB3 / Fold change vs veh, ZRANB3 / RFU, CUL4A / Fold change vs veh, CUL4A / RFU, CCNY / Fold change vs veh, CCNY / RFU, UFL1 / Fold change vs veh, UFL1 / RFU, COG3 / Fold change vs veh, COG3 / RFU, DIAPH2 / Fold change vs veh, DIAPH2 / RFU, SKA2 / Fold change vs veh, SKA2 / RFU, AFF3 / Fold change vs veh, AFF3 / RFU, LMF1 / Fold change vs veh, LMF1 / RFU, IPO11 / Fold change vs veh, IPO11 / RFU, DFFB / Fold change vs veh, DFFB / RFU, FOXP1 / Fold change vs veh, FOXP1 / RFU, CARD8 / Fold change vs veh, CARD8 / RFU, STRN3 / Fold change vs veh, STRN3 / RFU, ADK / Fold change vs veh, ADK / RFU, RASSF2 / Fold change vs veh, RASSF2 / RFU, WIPF1 / Fold change vs veh, WIPF1 / RFU, LARP1B / Fold change vs veh, LARP1B / RFU, RASA1 / Fold change vs veh, RASA1 / RFU, RB1 / Fold change vs veh, RB1 / RFU, PPFIA1 / Fold change vs veh, PPFIA1 / RFU, MAT2A / Fold change vs veh, MAT2A / RFU, CCT5 / Fold change vs veh, CCT5 / RFU, WDR92 / Fold change vs veh, WDR92 / RFU, CUX1 / Fold change vs veh, CUX1 / RFU, TTC7A / Fold change vs veh, TTC7A / RFU, TMEM135 / Fold change vs veh, TMEM135 / RFU, DEPTOR / Fold change vs veh, DEPTOR / RFU, CPM / Fold change vs veh, CPM / RFU, DNAJB6 / Fold change vs veh, DNAJB6 / RFU, CACNA2D3 / Fold change vs veh, CACNA2D3 / RFU, DTX4 / Fold change vs veh, DTX4 / RFU, TFCP2 / Fold change vs veh, TFCP2 / RFU, GMCL1 /// GMCL1P1 / Fold change vs veh, GMCL1 /// GMCL1P1 / RFU, AEBP2 / Fold change vs veh, AEBP2 / RFU, SNHG1 /// SNORD22 /// SNORD25 /// SNORD26 /// SNORD27 /// SNORD28 /// SNORD29 /// SNORD31 / Fold change vs veh, SNHG1 /// SNORD22 /// SNORD25 /// SNORD26 /// SNORD27 /// SNORD28 /// SNORD29 /// SNORD31 / Fold change (Aza/veh), C12orf56 (ProbeSet 11735607_a_at) / Fold change (ACY-1035/veh), C12orf56 (ProbeSet 11735607_a_at) / Fold change (Aza/veh), FGFR1OP (ProbeSet 11751329_s_at) / Fold change (ACY-1035/veh), FGFR1OP (ProbeSet 11751329_s_at) / Fold change (Aza/veh), VPS36 (ProbeSet 11739960_a_at) / Fold change (ACY-1035/veh), VPS36 (ProbeSet 11739960_a_at) / RFU SYPL1 (11715823_x_at) / Fold change /veh SYPL1 (11715823_x_at) / RFU IGFBP7 (11715501_s_at) / Fold change /veh IGFBP7 (11715501_s_at) / RFU REEP3 (11722064_at) / Fold change /veh REEP3 (11722064_at) / RFU IGLL1 (11728026_x_at) / Fold change /veh IGLL1 (11728026_x_at): dose or concentration left out as unconfirmed
Conditions: ProbeSet 11716999_a_at; LIST D

Nc1ccc(-c2cccs2)cc1NC(=O)c1ccc2c(c1)cc(C1CC1)n2CCN1CCOCC1 [ACY-1035]
Fold change vs veh, RASA1: 0.84
